The text below walks through data of PMC12951562, “SH2scan: Mapping SH2 Domain-Ligand Binding Selectivity for Inhibitors and Degraders” (Journal of Medicinal Chemistry, 2026).

Read-outs that look alike come from different tables or passages of the source.

Common to all, as to assay: biochemical
Holding throughout (format): binding

For one experiment, the target named is T1, STAP1 (Homo sapiens, UniProt Q9ULZ2).
T1 construct: made in house; host or cells: HEK293 (transient transfection), unpurified extract
T1 sequence (Q9ULZ2 1-295): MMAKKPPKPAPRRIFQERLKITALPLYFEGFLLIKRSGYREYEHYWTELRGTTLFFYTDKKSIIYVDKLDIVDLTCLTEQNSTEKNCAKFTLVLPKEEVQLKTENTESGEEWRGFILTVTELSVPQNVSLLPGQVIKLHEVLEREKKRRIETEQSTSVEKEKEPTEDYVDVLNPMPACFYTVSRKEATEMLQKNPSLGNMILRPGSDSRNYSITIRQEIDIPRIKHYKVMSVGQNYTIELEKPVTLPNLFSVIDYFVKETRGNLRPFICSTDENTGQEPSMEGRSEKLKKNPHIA
The settings on record: read-out: percent of DMSO vehicle control.

The next experiment has as its target T2, PLCG2(SH2dom.C-term.) (Homo sapiens, UniProt P16885).
T2 construct: SH2dom.C-term. denotes SH2 domain closest to C-terminus of protein; made in house; host or cells: HEK293 (transient transfection, unpurified extract)
T2 sequence (P16885 646-735 limits assumed): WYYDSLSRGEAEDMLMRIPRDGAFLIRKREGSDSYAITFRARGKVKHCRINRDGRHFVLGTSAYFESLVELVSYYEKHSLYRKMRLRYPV
The settings on record: read-out: percent of DMSO vehicle control.

A further experiment has as its target T3, HSH2D (Homo sapiens, UniProt Q96JZ2).
T3 construct: the DNA-tagged SH2 domain concentrations used in this study were <0.1 nM; made in house; host or cells: HEK293 (transient transfection, unpurified extract)
T3 sequence (Q96JZ2 34-125 limits assumed): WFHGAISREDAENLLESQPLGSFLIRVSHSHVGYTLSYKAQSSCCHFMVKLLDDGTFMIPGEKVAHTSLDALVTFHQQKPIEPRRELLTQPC

The target in the next experiment is T4, PTPN6(SH2dom.N-term.) (Homo sapiens, UniProt P29350).
T4 construct: SH2dom.N-term. denotes SH2 domain closest to N-terminus of protein; made in house; host or cells: HEK293 (transient transfection, unpurified extract)
T4 sequence (P29350 4-100 limits assumed): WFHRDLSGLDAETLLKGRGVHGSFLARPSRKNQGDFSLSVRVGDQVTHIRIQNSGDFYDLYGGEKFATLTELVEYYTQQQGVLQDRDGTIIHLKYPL
The following applies: read-out: percent of DMSO vehicle control.

A further experiment has as its target T5, SRC (Homo sapiens, UniProt P12931).
T5 construct: made in house; host or cells: HEK293 (transient transfection), unpurified extract
The settings on record: read-out: percent of DMSO vehicle control.

The target in a further experiment is T6, CRK (Homo sapiens, UniProt P46108).
T6 construct: the DNA-tagged SH2 domain concentrations used in this study were <0.1 nM; made in house; host or cells: HEK293 (transient transfection; unpurified extract)
The settings on record: read-out: percent of DMSO vehicle control.

Another experiment has as its target T7, LYN (Homo sapiens, UniProt P07948).
T7 construct: the DNA-tagged SH2 domain concentrations used in this study were <0.1 nM; made in house; host or cells: HEK293 (transient transfection, unpurified extract)
The following applies: read-out: percent of DMSO vehicle control.

Another experiment has as its target T8, GRB2 (Homo sapiens, UniProt P62993).
T8 construct: the DNA-tagged SH2 domain concentrations used in this study were <0.1 nM; made in house; host or cells: HEK293 (transient transfection; unpurified extract)
The settings on record: primary screen, 10 μM.

Another experiment has as its target T9, HCK (Homo sapiens, UniProt P08631).
T9 construct: the DNA-tagged SH2 domain concentrations used in this study were <0.1 nM; made in house; host or cells: HEK293 (transient transfection, unpurified extract)
The following applies: read-out: percent of DMSO vehicle control.

The target of the next experiment is T10, PIK3R1(SH2dom.N-term.) (Homo sapiens, UniProt P27986).
T10 construct: SH2dom.N-term. denotes SH2 domain closest to N-terminus of protein; made in house; host or cells: HEK293 (transient transfection, unpurified extract)
The settings on record: read-out: percent of DMSO vehicle control.

Another experiment addresses T11, BLNK (Homo sapiens, UniProt Q8WV28).
T11 construct: the DNA-tagged SH2 domain concentrations used in this study were <0.1 nM; made in house; host or cells: HEK293 (transient transfection; unpurified extract)
T11 sequence (Q8WV28 346-453 limits assumed): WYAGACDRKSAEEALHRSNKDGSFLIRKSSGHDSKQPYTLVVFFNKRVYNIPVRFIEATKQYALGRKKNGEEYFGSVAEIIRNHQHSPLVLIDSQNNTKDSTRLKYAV
The settings on record: read-out: percent of DMSO vehicle control.

Another experiment has as its target T12, SLP76 (Homo sapiens, UniProt Q13094).
T12 construct: made in house; host or cells: HEK293 (transient transfection), unpurified extract
T12 sequence (Q13094 1-533): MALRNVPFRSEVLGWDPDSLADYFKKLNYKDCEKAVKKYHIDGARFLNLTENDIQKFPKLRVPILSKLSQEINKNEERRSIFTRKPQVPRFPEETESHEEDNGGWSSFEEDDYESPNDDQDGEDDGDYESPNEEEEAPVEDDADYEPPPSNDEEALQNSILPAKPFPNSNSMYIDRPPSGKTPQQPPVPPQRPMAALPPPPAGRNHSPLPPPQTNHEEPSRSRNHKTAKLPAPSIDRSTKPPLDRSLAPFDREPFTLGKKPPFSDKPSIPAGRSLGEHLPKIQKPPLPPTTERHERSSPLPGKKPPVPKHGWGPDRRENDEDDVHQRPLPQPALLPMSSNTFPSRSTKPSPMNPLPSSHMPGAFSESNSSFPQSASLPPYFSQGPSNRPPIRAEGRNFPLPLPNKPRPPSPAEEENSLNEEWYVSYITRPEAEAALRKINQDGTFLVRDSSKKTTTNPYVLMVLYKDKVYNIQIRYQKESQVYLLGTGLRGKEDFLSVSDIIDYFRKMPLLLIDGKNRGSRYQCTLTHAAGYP
The following applies: read-out: percent of DMSO vehicle control.

Another experiment has as its target T13, BRK (Homo sapiens, UniProt Q13882).
T13 construct: the DNA-tagged SH2 domain concentrations used in this study were <0.1 nM; made in house; host or cells: HEK293 (transient transfection; unpurified extract)
The following applies: read-out: percent of DMSO vehicle control.

A further experiment concerns the target T14, MIST (Homo sapiens, UniProt Q7Z7G1).
T14 construct: the DNA-tagged SH2 domain concentrations used in this study were <0.1 nM; made in house; host or cells: HEK293 (transient transfection, unpurified extract)
T14 sequence (Q7Z7G1 309-419 limits assumed): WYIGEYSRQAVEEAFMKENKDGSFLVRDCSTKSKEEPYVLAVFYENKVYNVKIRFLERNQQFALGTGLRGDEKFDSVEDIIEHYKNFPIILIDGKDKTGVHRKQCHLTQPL
The settings on record: read-out: percent of DMSO vehicle control.

In another experiment the target is T15, ABL1 (Homo sapiens, UniProt P00519).
T15 construct: the DNA-tagged SH2 domain concentrations used in this study were <0.1 nM; made in house; host or cells: HEK293 (transient transfection; unpurified extract)
T15 sequence (P00519 127-217 limits assumed): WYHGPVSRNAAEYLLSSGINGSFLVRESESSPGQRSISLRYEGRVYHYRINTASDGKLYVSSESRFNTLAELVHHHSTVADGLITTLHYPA
The settings on record: read-out: percent of DMSO vehicle control.

A further experiment addresses T16, ITK (Homo sapiens, UniProt Q08881).
T16 construct: the DNA-tagged SH2 domain concentrations used in this study were <0.1 nM; made in house; host or cells: HEK293 (transient transfection, unpurified extract)
T16 sequence (Q08881 239-338 limits assumed): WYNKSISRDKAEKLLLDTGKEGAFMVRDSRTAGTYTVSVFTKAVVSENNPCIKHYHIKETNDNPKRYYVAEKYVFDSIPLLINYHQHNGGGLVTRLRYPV
The settings on record: primary screen, 10 μM.

Setting [1] is: read-out: percent of DMSO vehicle control.

T10 sequence (P27986 333-428 limits assumed): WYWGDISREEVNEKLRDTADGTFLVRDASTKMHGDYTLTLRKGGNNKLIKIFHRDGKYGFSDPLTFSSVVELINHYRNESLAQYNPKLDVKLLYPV
T13 sequence (Q13882 78-170 limits assumed): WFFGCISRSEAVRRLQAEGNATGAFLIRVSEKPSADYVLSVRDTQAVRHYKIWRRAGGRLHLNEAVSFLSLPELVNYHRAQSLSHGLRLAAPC
T8 sequence (P62993 60-152 limits assumed): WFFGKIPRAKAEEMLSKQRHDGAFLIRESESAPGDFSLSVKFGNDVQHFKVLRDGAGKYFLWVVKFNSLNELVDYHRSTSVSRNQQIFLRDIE
T5 sequence (P12931 whole entry): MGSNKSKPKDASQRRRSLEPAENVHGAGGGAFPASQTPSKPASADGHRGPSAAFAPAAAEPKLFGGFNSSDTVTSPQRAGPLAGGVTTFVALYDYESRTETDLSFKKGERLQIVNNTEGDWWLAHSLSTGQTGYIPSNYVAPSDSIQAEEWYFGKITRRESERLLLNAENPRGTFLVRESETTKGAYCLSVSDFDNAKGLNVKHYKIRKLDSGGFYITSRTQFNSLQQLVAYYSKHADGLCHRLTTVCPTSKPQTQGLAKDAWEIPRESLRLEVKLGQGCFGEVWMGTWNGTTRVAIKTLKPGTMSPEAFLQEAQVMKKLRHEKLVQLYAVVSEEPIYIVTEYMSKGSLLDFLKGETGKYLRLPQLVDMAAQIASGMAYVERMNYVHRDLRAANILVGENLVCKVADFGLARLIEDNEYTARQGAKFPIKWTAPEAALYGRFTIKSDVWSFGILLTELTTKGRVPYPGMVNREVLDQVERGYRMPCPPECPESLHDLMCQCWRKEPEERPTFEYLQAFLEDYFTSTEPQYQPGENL
T9 sequence (P08631 144-241 limits assumed): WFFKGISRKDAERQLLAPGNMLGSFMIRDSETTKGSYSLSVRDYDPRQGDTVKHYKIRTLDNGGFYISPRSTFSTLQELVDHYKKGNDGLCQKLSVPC
T7 sequence (P07948 129-226 limits assumed): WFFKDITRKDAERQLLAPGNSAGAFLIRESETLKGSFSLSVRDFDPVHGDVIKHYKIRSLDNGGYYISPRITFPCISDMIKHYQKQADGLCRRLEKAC
T6 sequence (P46108 13-118 limits assumed): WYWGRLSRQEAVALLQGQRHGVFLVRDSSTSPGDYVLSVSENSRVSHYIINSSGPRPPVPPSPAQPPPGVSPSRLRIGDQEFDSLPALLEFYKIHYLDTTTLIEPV

Consider `CC(=O)N1CC[C@H]2CC[C@@H](C(=O)N[C@@H](CCC(N)=O)C(=O)NC(c3ccccc3)c3ccccc3)N2C(=O)[C@@H](NC(=O)c2cc3cc(C(F)(F)P(=O)(O)O)ccc3[nH]2)C1` [SI-109], for which the remaining activity at 10 µM on STAP1 turned out to be 104%; at PLCG2(SH2dom.C-term.), 98.7 ± 6.9%; at PTPN6(SH2dom.N-term.) it was 123%; on SRC, 117%; on LYN it was 140%; at HCK it was 91.9%. Moreover, the remaining activity at 10 µM was determined as 134% at PIK3R1(SH2dom.N-term.), 117% on BLNK, 61.9% at SLP76 and 124% at BRK. In addition, the values for the percent of DMSO vehicle control at 10 µM at HSH2D (setting [1]), at CRK and on MIST were 154%, 119% and 104%, respectively. The “percent of DMSO vehicle control” value is on record as 104.9% on GRB2 and 124.2% on ITK. Also, at ABL1, the percent of DMSO control binding at 10 µM turned out to be 132%.

With `O=C(CCl)Nc1cccc(CNC(=O)[C@H](Cc2ccc(OP(=O)(O)O)cc2)NC(=O)Cc2ccc(F)cc2)c1` [MN551], the remaining activity at 10 µM came out at 84.3 ± 2.8% at STAP1 (primary screen, 10 μM); 133% on PLCG2(SH2dom.C-term.) (primary screen, 10 μM); 3 ± 0.2% on HSH2D (primary screen, 10 μM, read-out: percent of DMSO vehicle control); 102% on PTPN6(SH2dom.N-term.) (primary screen, 10 μM); 70.2 ± 6.8% at SRC (primary screen, 10 μM); 72.1 ± 0.5% at CRK (primary screen, 10 μM). The remaining activity at 10 µM at LYN (primary screen, 10 μM) came to 161%; at HCK (primary screen, 10 μM), 92.7%; on PIK3R1(SH2dom.N-term.) (primary screen, 10 μM), 99.8 ± 1.6%; on BLNK (primary screen, 10 μM), 101%; on SLP76 (primary screen, 10 μM) it was 116%; on BRK (primary screen, 10 μM), 4.7 ± 0.7%. For the same molecule, the remaining activity at 10 µM came to 102% at MIST (primary screen, 10 μM) and 35.7 ± 4.3% at ABL1 (primary screen, 10 μM). Further, the Kd – broadly, the equilibrium constant for the complex coming apart – on HSH2D (dose-response, read-out: KD) came out at 8.7 µM. Besides, the “percent of DMSO vehicle control” value at GRB2 turned out to be 103.7%; at ITK, 51.4±1.1%.

Turning to `NC(=O)CC[C@H](NC(=O)[C@@H]1CC[C@@H]2CCN(C(=O)CCCCCC#Cc3cccc4c3CN(C3CCC(=O)NC3=O)C4=O)C[C@H](NC(=O)c3cc4cc(C(F)(F)P(=O)(O)O)ccc4[nH]3)C(=O)N21)C(=O)NC(c1ccccc1)c1ccccc1` (stereo partly shown) [SD-36], the remaining activity at 10 µM at STAP1 worked out at 79.9 ± 5.8%; at PLCG2(SH2dom.C-term.), 86.3 ± 12.4%; at PTPN6(SH2dom.N-term.), 87.3 ± 4.7%; at SRC, 81.4 ± 1.5%; at LYN it was 90.9 ± 2.3%; at HCK, 56.4 ± 3.2%. The remaining activity at 10 µM at PIK3R1(SH2dom.N-term.) turned out to be 124%; on BLNK, 104%; at SLP76, 66.5 ± 0.8%; at BRK, 76.9 ± 3.5%. For the same molecule, the percent of DMSO vehicle control at 10 µM on HSH2D (setting [1]) amounted to 72.7 ± 14.5%; at CRK, 77 ± 13.9%; at MIST it was 104 ± 8.6%. Also, the “percent of DMSO vehicle control” value stood at 92.9±1.6% on GRB2 and 94.0±11.1% on ITK. The percent of DMSO control binding at 10 µM on ABL1 was 87.4 ± 24%.
